Experimental data from patent publication US20050266997A1, “Flowering stimulant composition using nitrobenzene” (priority 2002, published 2005).

Test system: agricultural and horticultural crops
Conditions: Nitrobenzene in a suitable formulation, used as spray or in granular form

With O=[N+]([O-])c1ccccc1 [Nitrobenzene] the increasing flowers was 40 to 45%.
